system: ATF4; experiment: HEK-ATF4 High Content Imaging assay (prevention of Tunicamycin induced ISR, ATF4 nucleus/cytoplasm signal ratio); format: cell-based; settings: Homo sapiens, wild-type HEK293 cells, 6 h incubation, ATF4 immunofluorescence
Method: HEK-ATF4 High Content Imaging assay
Example compounds were tested in the HEK-ATF4 High Content Imaging assay to assess their pharmacological potency to prevent Tunicamycin induced ISR. Wild-type HEK293 cells were plated in 384-well imaging assay plates at a density of 12,000 cells per well in growth medium (containing DMEM/F12, 10% FBS, 2 mM L-Glutamine, 100 U/mL Penicillin—100 μg/mL Streptomycin) and incubated at 37° C., 5% CO2. 24 h later, the medium was changed to 50 μL assay medium per well (DMEM/F12, 0.3% FBS, 2 mM L-Glutamine, 100 U/mL Penicillin—100 μg/mL Streptomycin). Example compounds were serially diluted in DMSO, spotted into intermediate plates and prediluted with assay medium containing 3.3 μM Tunicamycin to give an 11-fold excess of final assay concentration. In addition to the example compound testing area, the plates also contained multiples of control wells for assay normalization purposes, wells containing Tunicamycin but no example compounds (High control), as well as wells containing neither example compound nor Tunicamycin (Low control). The assay was started by transferring 5 μL from the intermediate plate into the assay plates, followed by incubation for 6 h at 37° C., 5% CO2. Subsequently, cells were fixed (4% PFA in PBS, 20 min at r.t.) and submitted to indirect ATF4 immunofluorescence staining (primary antibody rabbit anti ATF4, clone D4B8, Cell Signaling Technologies; secondary antibody Alexa Fluor 488 goat anti-rabbit IgG (H+L), Thermofisher Scientific). Nuclei were stained using Hoechst dye (Thermofisher Scientific), and plates were imaged on an Opera Phenix High Content imaging platform equipped with 405 nm and 488 nm excitation. Finally, images were analyzed using script based algorithms. The main readout HEK-ATF4 monitored the ATF4 signal ratio between nucleus and cytoplasm. Tunicamycin induced an increase in the overall ATF4 ratio signal, which was prevented by ISR modulating example compounds. In addition, HEK-CellCount readout was derived from counting the number of stained nuclei corresponding to healthy cells. This readout served as an internal toxicity control.

SMILES	IC50
O=C(COc1ccc(Cl)c(F)c1)N[C@H]1CC[C@H](c2nc3ccc(Cl)cc3o2)NC1 [Example 2, N-[(3S,6R)-6-(6-chloro-1,3-benzoxazol-2-yl)piperidin-3-yl]-2-(4-chloro-3-fluorophenoxy)acetamide]	500 to 2000 nM
O=C(COc1ccc(Cl)c(F)c1)N[C@H]1CC[C@H](c2nc3cc(Cl)ccc3o2)NC1 [Example 4, N-[(3S,6R)-6-(5-chloro-1,3-benzoxazol-2-yl)piperidin-3-yl]-2-(4-chloro-3-fluorophenoxy)acetamide]	2000 to 15000 nM
O=C(COc1ccc(Cl)c(F)c1)N[C@H]1CC[C@H](c2cn3cc(C(F)(F)F)ccc3n2)NC1 [Example 6, 2-(4-chloro-3-fluoro-phenoxy)-N-[(3S,6R)-6-[6-(trifluoromethyl)imidazo[1,2-a]pyridin-2-yl]-3-piperidyl]acetamide]	2000 to 15000 nM
O=C(COc1ccc(Cl)c(F)c1)N[C@H]1CC[C@H](c2cn3ccc(C(F)(F)F)cc3n2)NC1 [Example 8, 2-(4-chloro-3-fluoro-phenoxy)-N-[(3S,6R)-6-[7-(trifluoromethyl)imidazo[1,2-a]pyridin-2-yl]-3-piperidyl]acetamide]	2000 to 15000 nM
O=C(COc1ccc(Cl)c(F)c1)N[C@H]1CC[C@H](c2nc3cccc(Cl)c3o2)NC1 [Example 10, N-[(3S,6R)-6-(7-chloro-1,3-benzoxazol-2-yl)piperidin-3-yl]-2-(4-chloro-3-fluorophenoxy)acetamide]	500 to 2000 nM
O=C(COc1ccc(Cl)c(F)c1)N[C@H]1CC[C@H](c2nc3ccc(OC(F)(F)F)cc3o2)NC1 [Example 12, 2-(4-chloro-3-fluorophenoxy)-N-[(3S,6R)-6-[6-(trifluoromethoxy)-1,3-benzoxazol-2-yl]piperidin-3-yl]acetamide]	1 to 500 nM
O=C(COc1ccc(Cl)c(F)c1)N[C@H]1CC[C@H](c2nc3ccc(OC(F)F)cc3o2)NC1 [Example 14, 2-(4-chloro-3-fluorophenoxy)-N-[(3S,6R)-6-[6-(difluoromethoxy)-1,3-benzoxazol-2-yl]piperidin-3-yl]acetamide]	500 to 2000 nM
O=C(COc1ccc(Cl)c(F)c1)N[C@H]1CC[C@H](c2nc3ccc(C(F)(F)F)cc3o2)NC1 [Example 16, 2-(4-chloro-3-fluorophenoxy)-N-[(3S,6R)-6-[6-(trifluoromethyl)-1,3-benzoxazol-2-yl]piperidin-3-yl]acetamide]	1 to 500 nM
O=C(COc1ccc(Cl)c(F)c1)N[C@H]1CC[C@H](c2nc3c(Cl)cccc3o2)NC1 [Example 18, N-[(3S,6R)-6-(4-chloro-1,3-benzoxazol-2-yl)piperidin-3-yl]-2-(4-chloro-3-fluorophenoxy)acetamide]	2000 to 15000 nM
